The values below come from patent US8658659B2, “Substituted oxazole derivatives and their use as tyrosine kinase inhibitors” (AB Science, priority 2005, dated 2014).

`Cc1ccc(NS(=O)(=O)Cc2ccccc2)cc1Nc1ncc(-c2ccncc2)o1` [Compound 001, N-[4-Methyl-3-(5-pyridin-4-yl-oxazol-2-ylamino)-phenyl]-C-phenyl-methane sulfonamide]: the melting point (in general, the temperature, or range, at which the solid turns liquid) stood at 258 °C. `Cc1ccc(Nc2nc3ccccc3o2)cc1Nc1ncc(-c2ccc(C#N)cc2)o1` [Compound 002, 4-{2-[5-(Benzooxazol-2-ylamino)-2-methyl-phenylamino]-oxazol-5-yl}-benzonitrile] had a melting point of 236 °C. The same measure for `Cc1ccc(Nc2nc3ccccc3s2)cc1Nc1ncc(-c2ccc(C#N)cc2)o1` [Compound 003, 4-{2-[5-(Benzothiazol-2-ylamino)-2-methyl-phenylamino]-oxazol-5-yl}-benzonitrile]: 216 to 220 °C; for `Cc1ccc(Nc2nc3ccccc3o2)cc1Nc1ncc(-c2cccnc2)o1` [Compound 004, N1-Benzooxazol-2-yl-4-methyl-N3-(5-pyridin-3-yl-oxazol-2-yl)-benzene-1,3-diamine]: 238 °C. Then `Cc1ccc(Nc2nc3cc(Cl)ccc3o2)cc1Nc1ncc(-c2ccncc2)o1` [Compound 005, N1-(5-Chloro-benzooxazol-2-yl)-4-methyl-N3-(5-pyridin-4-yl-oxazol-2-yl)-benzene-1,3-diamine], with 229 °C. On to `Cc1ccc(Nc2nc3ccc(Cl)cc3o2)cc1Nc1ncc(-c2ccncc2)o1` [Compound 006, N1-(6-Chloro-benzooxazol-2-yl)-4-methyl-N3-(5-pyridin-4-yl-oxazol-2-yl)-benzene-1,3-diamine], for which the melting point was greater than 260 °C. The same measure for `CCS(=O)(=O)c1ccc2oc(Nc3ccc(C)c(Nc4ncc(-c5ccncc5)o4)c3)nc2c1` [Compound 007, N1-(5-Ethanesulfonyl-benzooxazol-2-yl)-4-methyl-N3-(5-pyridin-4-yl-oxazol-2-yl)-benzene-1,3-diamine]: 252 °C; for `Cc1ccc(Nc2nc3cc(F)ccc3o2)cc1Nc1ncc(-c2ccncc2)o1` [Compound 009, N1-(5-Fluoro-benzooxazol-2-yl)-4-methyl-N3-(5-pyridin-4-yl-oxazol-2-yl)-benzene-1,3-diamine]: 170 °C; for `Cc1ccc(Nc2nc3ccc(F)cc3o2)cc1Nc1ncc(-c2ccncc2)o1` [Compound 010, N1-(6-Fluoro-benzooxazol-2-yl)-4-methyl-N3-(5-pyridin-4-yl-oxazol-2-yl)-benzene-1,3-diamine]: 260 °C. Consider `Cc1ccc(N2CCN(c3cccc(F)c3)C2=O)cc1Nc1ncc(-c2ccc(C#N)cc2)o1` [Compound 011, 4-(2-{5-[3-(3-Fluoro-phenyl)-2-oxo-imidazolidin-1-yl]-2-methyl-phenylamino}-oxazol-5-yl)-benzonitrile], for which the melting point worked out at 221 °C. `Cc1ccc(N2CCN(c3cccc(C#N)c3)C2=O)cc1Nc1ncc(-c2ccc(C#N)cc2)o1` [Compound 012, 4-(2-{5-[3-(3-cyano-phenyl)-2-oxo-imidazolidin-1-yl]-2-methyl-phenylamino}-oxazol-5-yl)-benzonitrile] displayed a melting point greater than 260 °C. The same measure for `Cc1ccc(N2CCN(c3cccc(F)c3)C2=O)cc1Nc1ncc(-c2ccc(C(N)=O)cc2)o1` [Compound 013, 4-(2-{5-[3-(3-Fluoro-phenyl)-2-oxo-imidazolidin-1-yl]-2-methyl-phenylamino}-oxazol-5-yl)-benzamide]: greater than 260 °C; for `Cc1ccc(N2CCN(c3cccc(C(F)(F)F)c3)C2=O)cc1Nc1ncc(-c2ccncc2)o1` [Compound 015, 1-[4-Methyl-3-(5-pyridin-4-yl-oxazol-2-ylamino)-phenyl]-3-(3-trifluoromethyl-phenyl)-imidazolidin-2-one]: 198 to 200 °C; for `Cc1ccc(C(=O)CCc2ccccc2)cc1Nc1ncc(-c2ccncc2)o1` [Compound 017, 1-[4-Methyl-3-(5-pyridin-4-yl-oxazol-2-ylamino)-phenyl]-3-phenyl-propan-1-one]: 138 °C. Then `CC(=O)c1ccc(C)c(Nc2ncc(-c3ccc(C#N)cc3)o2)c1` [Compound 018, 4-[2-(5-Acetyl-2-methyl-phenylamino)-oxazol-5-yl]-benzonitrile], with 240 °C; and `Cc1ccc(C(=O)CCc2ccc(F)cc2)cc1Nc1ncc(-c2ccc(C#N)cc2)o1` [Compound 019, 4-(2-{5-[3-(4-Fluoro-phenyl)-propionyl]-2-methyl-phenylamino}-oxazol-5-yl)-benzonitrile], with 175 °C; and `Cc1ccc(C(=O)CCc2ccccc2)cc1Nc1ncc(-c2ccc(C#N)cc2)o1` [Compound 020, 4-{2-[2-Methyl-5-(3-phenyl-propionyl)-phenylamino]-oxazol-5-yl}-benzonitrile], with 138 °C. In turn, `Cc1ccc(C(=O)CCc2cccc(F)c2)cc1Nc1ncc(-c2ccc(C#N)cc2)o1` [Compound 021, 4-(2-{5-[3-(3-Fluoro-phenyl)-propionyl]-2-methyl-phenylamino}-oxazol-5-yl)-benzonitrile] displayed a melting point of 157 °C. The same measure for `CC(=O)c1ccc(C)c(Nc2ncc(-c3ccc(C(N)=O)cc3)o2)c1` [Compound 022, 4-[2-(5-Acetyl-2-methyl-phenylamino)-oxazol-5-yl]-benzamide]: greater than 260 °C; for `Cc1ccc(NCC(=O)c2ccc(F)cc2)cc1Nc1ncc(-c2ccncc2)o1` [Compound 023, 1-(4-Fluoro-phenyl)-2-[4-methyl-3-(5-pyridin-4-yl-oxazol-2-ylamino)-phenylamino]-ethanone]: 202 °C; for `Cc1ccc(N(C)CC(=O)c2ccc(F)cc2)cc1Nc1ncc(-c2ccncc2)o1` [Compound 024, 1-(4-Fluoro-phenyl)-2-{methyl-[4-methyl-3-(5-pyridin-4-yl-oxazol-2-ylamino)-phenyl]-amino}-ethanone]: 230 °C.

`Cc1ccc(N(C)CC(=O)c2ccc(C#N)cc2)cc1Nc1ncc(-c2ccncc2)o1` [Compound 025, 4-({Methyl-[4-methyl-3-(5-pyridin-4-yl-oxazol-2-ylamino)-phenyl]-amino}-acetyl)-benzonitrile] gave a melting point of 218 °C. Then `Cc1ccc(NCC(=O)c2ccccc2)cc1Nc1ncc(-c2ccncc2)o1` [Compound 026, 2-[4-Methyl-3-(5-pyridin-4-yl-oxazol-2-ylamino)-phenylamino]-1-phenyl-ethanone], with 152 °C. As for `Cc1ccc(NCC(=O)c2ccc(F)cc2)cc1Nc1ncc(-c2ccc(C#N)cc2)o1` [Compound 027, 4-(2-{5-[2-(4-Fluoro-phenyl)-2-oxo-ethylamino]-2-methyl-phenylamino}-oxazol-5-yl)-benzonitrile], the melting point was determined as 199 °C.
